Data published in US20130280343A1, “Food Products Derived From Cannabinoid-Administered Livestock” (priority 2012, published 2013).

Columns and labels:
[1] = system: mice; details: orally administered; cited from earlier work
[2] = system: mice injected with 5-Hydroxytryptamine (a nociceptive agent); details: orally administered; cited from earlier work
[3] = system: free range broiler chickens; test: dimethylheptylpyran capsules orally administered to free range broiler chickens; type: in vivo; details: 1 μg in cod liver oil capsules, twice-daily oral
Experimental: In a final embodiment of the present invention, soft gel capsules containing 1 μg of dimethylheptylpyran dissolved in cod liver oil are twice-daily orally administered to free range broiler chickens. Dimethylheptylpyran is an extremely potent cannabinoid receptor agonist.

[4] = system: humans; test: lowest observed effect level (LOEL) for psychoactive effects in humans; type: in vivo; details: orally administered
Experimental: Contrasting their extremely low toxicity, cannabinoids generally have very low effective doses. […] In humans, the lowest observed effect level (LOEL) for psychoactive effects induced by orally administered Δ^9-THC is 0.04 mg/kg, or 3.2 mg for the average 80 kg adult human. As a result, the therapeutic indices (LD50/ED50) of most cannabinoids are astoundingly high. It would be extremely difficult, if not impossible, for a human or animal to suffer permanent damage due to an intake of cannabinoids, absent a targeted effort to cause such damage.

[5] = accumulation of Δ^9-THC in adipose tissue of finishing hogs given Cannabis tincture in water; details: 100 mg Δ^9-THC orally each day
[6] = accumulation of Δ^9-THC in milk of dairy water buffalo grazing Cannabis indica Himalaya Gold; type: in vivo; details: roughly 400 g Δ^9-THC orally per day, 20 L milk per day
Text: In a second embodiment of the present invention, dairy water buffalo are grazed in a pasture cultivated for their consumption which contains cereals, legumes, and Cannabis indica “Himalaya Gold” (a hardy, outdoor cultivar of Cannabis). The approximate Δ^9-THC, CBN, and CBD levels of the Himalaya Gold Cannabis cultivar are 10.0%, 1.0%, and 0.3%, respectively. The animals are left to graze according to their preference, and all three types of plants are consumed in significant quantity. Particularly, the water buffalo consume about 32 kg of raw plant material per day, of which an average of 4 kg is Cannabis. Thus, roughly 400 g of Δ^9-THC is orally administered to the animals each day.
The cannabinoids present in the Himalaya Gold Cannabis induce physiological effects which affect the composition of the water buffalo's milk. More specifically, several fat-soluble cannabinoids, including Δ^9-THC and 11-Hydroxy-Δ^9-tetrahydrocannabinol (11-OH-Δ^9-THC; an active metabolite of Δ^9-THC), accumulate in the milk during lactogenesis. The cannabinoid-containing raw milk is then harvested from the water buffalo by use of a rotary parlor milking station. […]

[7] = system: humans; details: orally administered; cited from earlier work

For `C=C(C)[C@@H]1CCC(C)=C[C@H]1c1c(O)cc(CCCCC)cc1O` [CBD, cannabidiol], the “median lethal dose (LD50)” value [1] is given as 13,500 mg/kg.

For `CCCCCc1cc(O)c2c(c1)OC(C)(C)c1ccc(C)cc1-2` [CBN, cannabinol], the “median effective dose (ED50) for antinociception” value [2] is given as 46.2 mg/kg and the “median lethal dose (LD50)” value [1] is given as 12,700 mg/kg.

For `CCCCCC(C)C(C)c1cc(O)c2c(c1)OC(C)(C)C1=C2CC(C)CC1` (stereo not shown) [dimethylheptylpyran], the calming effect [3] was “significantly calms the chickens” and the “effect on aggressive behavior” value [3] was “inhibits aggressive behavior”.

For `[Cl-].[Na+]` [sodium chloride], the “median lethal dose (LD50)” value [1] is given as 4,000 mg/kg.

For `CCCCCc1cc(O)c2c(c1)OC(C)(C)[C@@H]1CCC(C)=C[C@@H]21` [Δ^9-THC, delta-9-tetrahydrocannabinol], the “LOEL for psychoactive effects, for the average 80 kg adult human” value [4] is listed as 3.2 mg, the “median effective dose (ED50) for antinociception” value [2] is listed as 1.0 mg/kg and the “average storage rate in adipose tissue” value [5] is listed as 0.1%. The “median lethal dose (LD50)” value [1] was 21,600 mg/kg, the “average transfer rate into milk” value [6] was 0.15% and the “Δ^9-THC content of milk” value [6] was “around 30 mg per L”. The “lowest observed effect level (LOEL) for psychoactive effects” value [7] was 0.04 mg/kg.
